These results are taken from patent US10774051B2, “6-membered heterocyclic derivatives and pharmaceutical composition comprising the same” (Shionogi & Co., Ltd., priority 2015, dated 2020).

What is called pIC50 is the IC50 on a negative log10 scale, so that one unit is a factor of ten.

pIC50: −log10 of the molar value. Read-outs that look alike come from different tables or passages of the source.

The assay deals with human P2X7 receptor (Homo sapiens, UniProt Q99572, R270H/Y155H). The experiment in a line: Evaluation of human P2X7 receptor inhibitory activity (Yo-Pro uptake, BzATP stimulation, FLIPR TETRA). It is filed as cell-based. The procedure, abridged: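 Yo-Pro dye uptake triggered by BzATP was monitored by FLIPR in human P2X7-transfected 1321N1 cells (SNP variant) in HEPES-buffered HBSS, pH 7.4-7.5. Compound was dispensed 8 min post-stimulation, then signal read for 20 min; IC50 derived logistically from inhibition of the fluorescence range.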

Setting [1] is: 1321N1 cells stably expressing human P2X7 receptor, BzATP stimulation, Yo-Pro uptake, read-out: IC50 (antagonistic activity for the human P2X7 receptor), class symbol.
The mark [2] stands for this setting: antagonistic activity for the human P2X7 receptor, read-out: IC50.
[3] abbreviates: 1321N1 cells stably expressing human P2X7 receptor, BzATP stimulation, Yo-Pro uptake, read-out: IC50 (antagonistic activity for the human P2X7 receptor).

Consider `COc1cn(Cc2ccccc2)c(Nc2cc(C)c(F)cc2C)nc1=O` [Compound I-0433], for which the pIC50 under setting [1] was > 8.00. As to `COc1cc(C)c(Nc2nc(=O)c(OC)cn2Cc2ccc(F)cc2)cc1C` [Compound I-0282], the pIC50 under setting [1] was > 8.00. For `Cc1ccc(-c2ncco2)cc1Nc1nc(=O)c(Cl)cn1Cc1ccc(F)c(Cl)c1` [Compound I-0852], the pIC50 under setting [2] was > 8.00. As to `COc1cn(Cc2ccc(F)c(Cl)c2)c(Nc2cc(C)c(C)cc2C)nc1=O` [Compound I-0243], under setting [1], the pIC50 is > 8.00. Regarding `Cc1c(Cl)cccc1Nc1nc(=O)c(F)cn1Cc1ccccc1` [Compound I-0010], the pIC50 under setting [1] was > 8.00. As for `CCOc1cc(Nc2nc(=O)c(F)cn2Cc2ccc(F)c(F)c2)c(C)cc1F` [Compound I-1033], the pIC50 under setting [2] was > 8.00. `CCCc1ccccc1Nc1nc(=O)c(OC)cn1Cc1ccccc1` [Compound I-0109]: under setting [1], the pIC50 is 6.00 to 6.30. Still for that read-out and setting: then `COc1cn(Cc2ccccc2)c(Nc2cc(Cl)c(Cl)cc2C)nc1=O` [Compound I-0459], with > 8.00.

In the case of `COc1cn(Cc2ccccc2)c(Nc2cc(Cl)ccc2Cl)nc1=O` [Compound I-0080], the pIC50 under setting [1] is 6.30 to 7.00. In the case of `COc1cn(Cc2ccc(F)c(F)c2)c(Nc2cc(C)c(Cl)cc2C)nc1=O` [Compound I-0279], under setting [1], the pIC50 was > 8.00. For the compound `COc1ccccc1Nc1nc(=O)c(OC)cn1Cc1ccc(F)c(F)c1` [Compound I-0675], the pIC50 under setting [3] was 6.72.

Regarding `COc1cn(Cc2cc(F)cc(F)c2)c(Nc2cccc(C)c2Cl)nc1=O` [Compound I-0505], under setting [1], the pIC50 was 7.00 to 8.00.

For `Cc1c(Cl)cccc1Nc1nc(=O)c(CCO)cn1Cc1ccccc1` [Compound I-0024], under setting [1], the pIC50 was 7.00 to 8.00. On to `COc1cn(Cc2ccc(F)c(Cl)c2)c(Nc2cccc3c(=O)n(C)ccc23)nc1=O` [Compound I-0902], for which the pIC50 under setting [2] was 7.00 to 8.00. Regarding `COc1cn(Cc2ccc(F)c(Cl)c2)c(Oc2cc(-c3ncco3)ccc2C)cc1=O` [Compound I-0965], the pIC50 under setting [3] was 6.36.

In the case of `COc1c(C)cccc1Nc1nc(=O)c(OC)cn1Cc1ccccc1` [Compound I-0130], the pIC50 under setting [1] was 6.30 to 7.00. `Cc1c(Cl)cccc1Nc1nc(=O)c(C#N)cn1Cc1ccccc1` [Compound I-0013]: the pIC50 under setting [3] was 7.41. Take `CCc1c(Nc2nc(=O)c(F)cn2Cc2cccc(Cl)c2)cc(OC)cc1OC` [Compound I-0315]: the pIC50 under setting [1] is > 8.00. Same read-out and setting: the same measure for `COc1cn(Cc2cc(F)cc(F)c2)c(Nc2cccc(C(F)(F)F)c2C)nc1=O` [Compound I-0470]: 7.00 to 8.00; for `COc1cn(Cc2cc(F)cc(F)c2)c(Nc2ccc(OC(F)F)cc2C)nc1=O` [Compound I-0539]: 7.00 to 8.00. As to `CCOc1cc(Nc2nc(=O)c(OC)cn2Cc2cc(F)c(F)c(F)c2)c(C)cc1C` [Compound I-0777], the pIC50 under setting [2] was > 8.00. For `COc1cc(F)cc(Cn2cc(OC)c(=O)nc2Nc2cccc(Cl)c2C)c1` [Compound I-0427], the pIC50 under setting [1] was 6.30 to 7.00. For the compound `CCc1cc(OC)c(OC)cc1Nc1nc(=O)c(F)cn1Cc1ccc(F)c(Cl)c1` [Compound I-0268], the pIC50 under setting [1] was > 8.00. Turning to `COc1cn(Cc2cc(F)cc(F)c2)c(Nc2cc(CO)c(C)cc2C)nc1=O` [Compound I-0600], the pIC50 under setting [2] was > 8.00. Regarding `COc1cc(C)c(Nc2nc(=NC#N)c(F)cn2Cc2cc(F)c(F)c(F)c2)cc1OC` [Compound I-1288], the pIC50 under setting [2] was 7.00 to 8.00. Consider `COc1cn(Cc2ccc(F)c(F)c2)c(Nc2cccc3sccc23)nc1=O` [Compound I-0485], for which, under setting [1], the pIC50 is > 8.00.

Take `CON=c1nc(Nc2cc(C)ccc2C)n(Cc2cc(F)c(F)c(F)c2)cc1F` [Compound I-1292]: the pIC50 under setting [2] is 6.30 to 7.00. In the case of `COc1cn(Cc2ccc(F)c(Cl)c2)c(Nc2cccc3occc23)nc1=O` [Compound I-0636], the pIC50 under setting [3] is 7.30. For the compound `COc1ccc(C)c(Nc2nc(=O)c(C#N)cn2Cc2cc(F)cc(F)c2)c1` [Compound I-1123], under setting [2], the pIC50 is 6.30 to 7.00. For the compound `COc1cn(Cc2cc(F)c(F)c(F)c2)c(Nc2cccc3sccc23)nc1=O` [Compound I-0626], under setting [3], the pIC50 is 8.40. As to `COc1cn(Cc2cc(F)cc(F)c2)c(Nc2cc3c(cc2C)OCO3)nc1=O` [Compound I-0741], under setting [2], the pIC50 was 7.00 to 8.00.

On to `Cn1ccc2c(Nc3nc(=O)c(F)cn3Cc3ccc(F)c(Cl)c3)cccc21` [Compound I-1019], for which, under setting [3], the pIC50 was 8.40. With `COc1cn(Cc2ccc(F)c(Cl)c2)c(Nc2cc3c(cc2C)OCC3)nc1=O` [Compound I-0864], the pIC50 under setting [2] was > 8.00. Regarding `COc1cn(Cc2cc(C)cc(F)c2)c(Nc2cccc(Cl)c2C)nc1=O` [Compound I-0466], under setting [1], the pIC50 was 7.00 to 8.00. Take `COc1cn(Cc2ccc(F)c(F)c2)c(Nc2cc(-c3nnco3)ccc2C)nc1=O` [Compound I-0523]: the pIC50 under setting [1] was 7.00 to 8.00. In the case of `COc1cc(C)c(Nc2nc(=O)c(OC)cn2Cc2ccc(F)cc2)cc1Cl` [Compound I-0615], the pIC50 under setting [2] was > 8.00. Take `COc1cc(C)c(Nc2cc(=O)n(C)c(=O)n2Cc2cc(F)c(F)c(F)c2)cc1C` [Compound I-0991]: under setting [3], the pIC50 is 7.54.

Regarding `Cc1cc(OC(F)F)ccc1Nc1nc(=O)c(F)cn1Cc1cc(F)cc(F)c1` [Compound I-1064], under setting [2], the pIC50 is 7.00 to 8.00. Take `COc1cn(Cc2ccc(F)c(Cl)c2)c(Nc2cc(C)c(Cl)cc2C)cc1=O` [Compound I-0949]: the pIC50 under setting [2] was 6.30 to 7.00. As for `COc1ccc(C)c(Nc2nc(=O)c(OC)cn2Cc2cc(F)cc(Cl)c2)c1` [Compound I-0409], the pIC50 under setting [1] is 7.00 to 8.00.

In the case of `COc1cn(Cc2cc(F)cc(Cl)c2)c(Nc2cc(Cl)cc3[nH]ccc23)nc1=O` [Compound I-0821], under setting [3], the pIC50 was 8.30. On to `Cc1ccc(N2CCCS2(=O)=O)cc1Nc1nc(=O)c(F)cn1Cc1ccc(F)cc1` [Compound I-0207], for which the pIC50 under setting [3] is 8.05.

`CCc1cc(OC)c(OC)cc1Nc1nc(=O)c(F)cn1Cc1cc(F)c(F)c(F)c1` [Compound I-1220]: under setting [2], the pIC50 was > 8.00. In the case of `COc1cn(Cc2cc(F)cc(F)c2)c(Nc2cc(OC(F)F)c(C)cc2C)nc1=O` [Compound I-0879], under setting [2], the pIC50 was > 8.00. In the case of `COc1cn(Cc2ccc(F)c(Cl)c2)c(Nc2cc(C)c(OC(F)F)cc2C)cc1=O` [Compound I-0948], under setting [2], the pIC50 was 7.00 to 8.00. With `COc1ccc(Nc2nc(=O)c(CO)nn2Cc2cc(F)c(F)c(F)c2)c(C)c1` [Compound I-1247], the pIC50 under setting [2] was > 8.00. In the case of `COc1cn(Cc2ccc(F)c(Cl)c2)c(Nc2cc(N3CCN(C(=O)OC(C)(C)C)CC3)ccc2C)nc1=O` [Compound I-0412], the pIC50 under setting [1] was 6.30 to 7.00. For `COc1cn(Cc2ccccc2)c(Nc2ccc(N3CCOCC3)cc2C)nc1=O` [Compound I-0204], the pIC50 under setting [1] was 6.30 to 7.00. Consider `Cc1cc(F)c(C)c(Nc2nc(=O)c(F)cn2Cc2cc(F)c(F)c(F)c2)c1` [Compound I-1244], for which the pIC50 under setting [2] was > 8.00. For `COc1cn(Cc2ccc(F)c(F)c2)c(Nc2cc(C)c(F)cc2C)nc1=O` [Compound I-0503], the pIC50 under setting [1] is > 8.00.

In the case of `COc1cn(Cc2ccccc2)c(NCc2ccccc2C)nc1=O` [Compound I-0102], the pIC50 under setting [1] was 6.30 to 7.00.

`COc1cn(Cc2ccccc2)c(Nc2cc(-n3c(C)ccc3C)ccc2C)nc1=O` [Compound I-0525]: the pIC50 under setting [1] is 6.30 to 7.00. Take `COc1cn(Cc2ccc(F)c(Cl)c2)c(Nc2cc(C)c(F)cc2C)nc1=O` [Compound I-0507]: the pIC50 under setting [1] is > 8.00. With `COc1cn(Cc2cc(F)cc(F)c2)c(Nc2cccc3sccc23)nc1=O` [Compound I-0441], the pIC50 under setting [1] was > 8.00.
